Experimental data published in US6946132B2, “Vaccine compositions and methods useful in inducing immune protection against arthritogenic peptides involved in the pathogenesis of rheumatoid arthritis” (The Regents of the University of California, priority 1994, dated 2005).

B1: rdnaJ: recombinant E. coli dnaJ heat shock protein, expressed and affinity purified, 41 kD (protein, UniProt P08622 2-376, looked up)
Chaperone protein DnaJ: AKQDYYEILGVSKTAEEREIRKAYKRLAMKYHPDRNQGDKEAEAKFKEIKEAYEVLTDSQKRAAYDQYGHAAFEQGGMGGGGFGGGADFSDIFGDVFGDIFGGGRGRQRAARGADLRYNMELTLEEAVRGVTKEIRIPTLEECDVCHGSGAKPGTQPQTCPTCHGSGQVQMRQGFFAVQQTCPHCQGRGTLIKDPCNKCHGHGRVERSKTLSVKIPAGVDTGDRIRLAGEGEAGEHGAPAGDLYVQVQVKQHPIFEREGNNLYCEVPINFAMAALGGEIEVPTLDGRVKLKVPGETQTGKLFRMRGKGVKSVRGGAQGDLLCRVVVETPVGLNERQKQLLQELQESFGGPTGEHNSPRSKSFFDGVKKFFDDLTR

Assays:
[1] = tested on: lymphocytes from patients with early stage RA; test: Proliferation of lymphocytes from RA patients exposed to RA susceptibility sequence peptides (stimulation index); assay type: cell-based, human; conditions: for response of RA patient blood lymphocytes to wild-type peptide (dnaJp1) relative to response to mutant peptide (dnaJpV): PBL's of RA patients
Text: FIG. 2 quantifies proliferation of cultured lymphocytes from adult RA and juvenile RA (JRA) patients following exposure of the cells to synthetic dnaJp1 (amino acid sequence […]; SEQ. ID. No. 4) or a mutant dnaJ peptide having the amino acid sequence […] (“dnaJpV”; SEQ. ID. No. 5). The control culture tested consisted of lymphocytes obtained from adults without RA (“normals”). The responses shown by bars in the graph of FIG. 2 are expressed in terms of a lymphocyte stimulation index; i.e., (CPM detected in cultures with dnaJ)/(CPM detected in cultures without dnaJ).
(§1) Lymphocytes from patients with early untreated rheumatoid arthritis (RA) were obtained from blood (peripheral blood lymphocytes, or “PBL's”) for from synovial fluids using standard aseptic techniques. The cells were incubated for 7 days with purified recombinant E. coli dnaJ (10 μg/ml, obtained as described in Example I) in RPMI 1640 medium supplemented with 10% prescreened human AB type serum. Lymphocytes from 10 control subjects (i.e., persons without RA) were treated similarly. Proliferation during the last 16 hours of culture was expressed as a stimulation index=cpm in cultures with dnaJ/cpm in cultures without dnaJ.
Lymphocytes from patients with early stage RA were contacted with one of two RA susceptibility sequence peptides according to the protocol described in Example II. The peptides used were either a 15 amino acid synthetic peptide having the wild-type sequence […] or a 15 amino acid synthetic mutant peptide having the sequence […].

[2] = tested on: anti-dnaJ antibodies in sera from patients with early stage RA; test: Inhibition of antibody binding to dnaJ (ELISA, sera preincubated with peptide); design: species or system human; conditions: sera diluted 1:100, preincubated overnight at 4° C. with peptide; % inhibition; FIG. 3
Experimental: FIG. 3 depicts the results of an inhibition study for inhibition of the activity of anti-dnaJ antibodies produced in separate sera samples from 51 early stage RA patients by intact dnaJ. The percent inhibition shown by bars in the graph of FIG. 3 is expressed in terms of the formula: % inhibition=100 I-OD460 with rdnaJ)(OD460 without rdnaJ) The control sera were obtained from humans without RA.
Microtiter plates were coated with recombinant dnaJ (10 μg/ml). Either sera obtained from patients with early stage RA or sera from control subjects were diluted 1:100 in borate buffered saline. Half of each specimen was incubated overnight at 4° C. with the wild-type dnaJ peptide described in Example III. Then the paired serum specimens were added to the dnaJ coated plates.
After 4 hours incubation, antibody binding was detected with alkaline phosphatase labelled goat anti-human IgG; levels of detected antibody binding were determined according to the following formula: % inhibition=100 (1-OD460with wild-type peptide)(OD460without wild-type peptide)

[3] = tested on: purified HLA MHC Class II epitopes; test: ELISA binding of biotinylated dnaJ peptides to immobilized HLA molecules; design: species or system human; conditions: ELISA absorption at 405 nm; FIG. 5
Text: FIG. 5 is a table comparing the binding efficiencies of several dnaJ peptides for purified HLA MHC Class II epitopes. Binding was detected by ELISA between biotinylated dnaJ peptides and immobilized HLA molecules. The results are expressed in the table as absorption units at 405 nm. The peptides tested were: dnaJp1 (SEQ. ID. No. 4), dnaJpV (SEQ. ID. No. 5), dnaJp2 (SEQ. ID. No. 6), S1 (SEQ. ID. No. 7) and S6 (SEQ. ID. No. 8). S1 and […] are synthetic peptides whose amino acid sequence corresponds to the sequence of known HLA DR antigens.

[4] = tested on: lymphocytes from patients with early untreated rheumatoid arthritis; test: Proliferation of lymphocytes from early stage RA patients exposed to rdnaJ (stimulation index); assay type: cell-based, human; conditions: rdnaJ 10 μg/ml, 7 days, FIG. 1
Text: FIG. 1 quantifies proliferation of cultured lymphocytes from 22 patients with early, untreated RA (“early stage” RA) following exposure of the cells to intact bacterial dnaJ protein. The responses shown by bars in the graph of FIG. 1 are expressed in terms of a lymphocyte stimulation index; i.e., (CPM detected in cultures with dnaJ)/(CPM detected in cultures without dnaJ). “CPM” refers to counts-per-minute. The control culture tested consisted of lymphocytes obtained from humans without RA.
as §1

Molecule | response of RA patient PBL's to wild-type peptide relative to response of lymphocytes from control subjects to wild-type peptide ([1]; FIG. 2) | response of RA patient blood lymphocytes to wild-type peptide (dnaJp1) relative to response to mutant peptide (dnaJpV) ([1]; FIG. 2) [times] | response of RA patient blood lymphocytes to wild-type peptide (dnaJp1) relative to response to mutant peptide (dnaJpV) ([1]; FIG. 2, listed as wild-type peptide) | inhibition of antibody binding to rdnaJ in RA sera relative to inhibition in control sera [2] [times] | binding to HLA MHC Class II molecule epitopes relative to human HLA Dw4 peptides (S1 and S6) [3] [times] | proliferation response of PBL's relative to response of control subject lymphocytes ([4]; PBL's from 14 early stage RA patients) | proliferation response of synovial fluid lymphocytes relative to response of control subject lymphocytes ([4]; synovial fluid lymphocytes from 8 early stage RA patients)
QKRAAYDQYGHAAFE (Synthetic dnaJp1) | approximately 9 times | ~10 | more than 5 times | ~3 | ≥ 100 | – | –
B1 | – | – | – | – | – | approximately 3.6 times | approximately 2.3 times
